The record followed here is the OPERA property sets (Mansouri et al. 2018).

Each structure is given as a SMILES string.

Usually logP stands for a log measure of how a compound divides between an organic and an aqueous phase. Low readings indicate lower lipophilicity, high ones higher lipophilicity. `CC(=O)Nc1cccc(C#N)c1` returned a logP of 1.2.

`c1ccc(CSc2cnn[nH]2)cc1` came in with a logP of 2.65.

In turn, `CCN(CC)c1c(C)n(C)c(=O)n(-c2ccccc2)c1=O` registered a logP of 2.11.

With `COc1cc(C(=O)C=CN2CC=CC2)cc(OC)c1OC`, the logP came to 1.77.

On to `O=C(Nc1ccc(Cl)c(Cl)c1)C1CCCC1`, for which the logP stood at 4.47.

`NC(=O)c1ncccc1O` yielded a logP of 0.65.

The compound `NN=C(c1ccccc1)c1ccccc1` came in with a logP of 2.79.

`FC(F)(F)C(F)(F)C(F)(F)C(F)(F)C(F)(F)F` showed a logP of 4.4.

Consider `CN(C)CCC1CN(C)C(=S)c2cccnc2O1` (stereo not drawn), for which the logP is 1.08.

As for `Cc1c(N2CCOCC2)c(=O)n(-c2ccccc2)c(=O)n1C`, the logP was 0.69.

Compound `O=C1CC(C(=O)O)Oc2ccccc21` (stereo not drawn) yielded a logP of 1.26.

`CC(=O)NC1=CC(=O)N(c2ccc(Cl)cc2)C1=O` yielded a logP of 0.75.

The compound `CC(=O)Nc1ccc(C(F)(F)F)cc1` showed a logP of 2.52.

The compound `COCC(=O)Nc1ccc(Cl)c(Cl)c1` yielded a logP of 2.77.

In the case of `CCCCOC(=O)c1cccc(C(=O)OCCCC)c1`, the logP came to 4.26.

Turning to `CSc1ccccc1NC(C)=O`, the logP amounted to 1.53.

Regarding `O=S([O-])c1ccccc1.[Na+]`, the logP was -3.54.

Consider `O=NN1CCCCC1=O`, for which the logP is -1.05.

Regarding `O=C(NC(CO)C(O)c1ccc(NC(=O)C2CC2)cc1)C(Cl)Cl` (stereo not drawn), the logP was found to be 0.75.

The compound `O=S(Cc1ccccn1)c1nc2ccccc2[nH]1` (stereo not drawn) gave a logP of 1.33.

Turning to `CCCC1CNC(C(=O)NC(C(C)O)C2OC(SC)C(O)C(O)C2O)C1` (stereo not drawn), the logP was found to be 0.04.

As to `CCOCCOC(=O)C(C#N)=C(CC)Nc1ccc([N+](=O)[O-])cc1`, the logP turned out to be 2.6.

`CCOC(=O)CON=Cc1ccc(OCCOC(=O)c2cc(OC)c(OC)c(OC)c2)c(OC)c1` came in with a logP of 3.26.

For the compound `Cn1c(C=O)cnc1[N+](=O)[O-]`, the logP was -0.1.

In the case of `CCN(CC)c1c(C)n(-c2ccccc2)c(=O)n(C)c1=O`, the logP is 2.19.

Consider `CC(C)(NC(=O)N(CCCl)N=O)C(=O)O`, for which the logP came out at 1.74.

`NC(=O)Nc1cccc(NC(N)=O)c1` gave a log partition coefficient (logP) of 0.58.

As for `COc1ccc(-c2ncc[nH]2)c(OC)c1`, the logP came out at 1.72.

For `Cn1cnc2ccccc2c1=O`, the log partition coefficient (logP) came to 0.69.

Regarding `c1ccc(-c2nnco2)cc1`, the logP worked out at 1.31.

`CCCCCCCCNC(N)=NNC(=O)Nc1ccc(Cl)cc1` registered a logP of 4.35.

With `CC(=O)Nc1ccccc1C#N`, the lipophilicity (logP) was determined as 0.57.

Consider `CCCOCCC(=O)N(C)c1ccc(S(=O)(=O)N(C)C)cc1`, for which the logP came to 1.26.

The compound `O=C(Nc1ccc(Cl)c(Cl)c1)C(F)F` returned a logP of 3.18.

Consider `C=CCN(C)N=Nc1ccc(C(N)=O)cc1`, for which the logP worked out at 2.09.

On to `COc1ccc(-c2nc3ccncc3[nH]2)c(OCCCCl)c1`, for which the logP was 3.53.

Regarding `CCOC(=O)N=[N+]([O-])c1ccccc1`, the logP amounted to 2.53.

As to `S=C=Nc1cccc(Br)c1`, the logP stood at 4.12.

In turn, `COc1ccc(-c2nc3ccncc3[nH]2)c(OC)c1` gave a logP of 2.56.

For the compound `CN(CCO)C1=C(N2CC2)C(=O)C(N(C)CCO)=C(N2CC2)C1=O`, the logP is -0.37.

On to `O=C(O)c1cc(=O)c2ccccc2o1`, for which the logP turned out to be 1.63.

Regarding `COc1cc(C=O)ccc1OCCOC(=O)c1ccc(Cl)cc1`, the logP amounted to 3.71.

In the case of `O=C(Nc1ccc(Cl)c(Cl)c1)C1CCCCC1`, the logP was determined as 4.72.

`CCCCCC(=O)N(C)c1ccc(S(=O)(=O)N(C)C)cc1` returned a logP of 2.16.

On to `CC(C)(C)[N+]([O-])=NC#N`, for which the logP was found to be 1.4.

As for `Cn1c(SCC2=C(C(=O)O)N3C(=O)C(NC(=O)Cc4cccs4)C3SC2)nnc(O)c1=O` (stereo not drawn), the logP is -0.52.

`CCCCC(=O)N(C)c1ccc(S(=O)(=O)N(C)C)cc1`: the logP is 1.63.

Compound `O=C(CN(C(=O)C(Cl)Cl)c1ccccc1)Nc1ccccc1` gave a logP of 2.96.
